Eight molecules from US7314861B2, “Melanin-concentrating hormone analogs” (priority 2001, dated 2008) can be followed below.

Where a SMILES comes first, the peptide text is derived from it. Bridges are numbered along the chain shown (N, C = ends). [ ]: non-standard residue; d: D form. The star is where a group is joined. Pentanoyl(5-guanidino) = NC(N)=NCCCCC(=O)*

The target of one assay is human MCH-1R (Homo sapiens, UniProt Q99705). The assay can be described thus: Aequorin bioluminescence functional assay, MCH-1R. The conditions noted are these: for MCH-1R Activation %: % Activation at 10 μM, aequorin functional assay.
Another assay has as its target human MCH-R2 (Homo sapiens, UniProt Q969V1). Nature of the assay: Aequorin bioluminescence functional assay, MCH-2R. The conditions noted are these: for MCH-2R Activation % / EC50: Table 1, aequorin functional assay; for MCH-2R Activation %: % Activation at 10 μM; for EC50: MCH-2R EC50 (nM), 293-AEQ17 cells; for selective activity at MCH-2R over MCH-1R: greater binding and/or activation at MCH-2R than at MCH-1R.

Sequence of human MCH-R2 (Q969V1 whole entry): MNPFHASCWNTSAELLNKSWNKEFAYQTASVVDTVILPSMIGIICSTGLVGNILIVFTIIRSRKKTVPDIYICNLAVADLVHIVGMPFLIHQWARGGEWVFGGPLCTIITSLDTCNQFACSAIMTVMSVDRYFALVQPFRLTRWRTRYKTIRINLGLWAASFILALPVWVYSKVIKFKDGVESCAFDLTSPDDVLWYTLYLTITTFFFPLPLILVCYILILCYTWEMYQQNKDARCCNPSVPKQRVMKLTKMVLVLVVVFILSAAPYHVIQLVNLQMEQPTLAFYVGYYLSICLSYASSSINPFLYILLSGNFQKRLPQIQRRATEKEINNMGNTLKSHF
Sequence of human MCH-1R (Q99705 whole entry): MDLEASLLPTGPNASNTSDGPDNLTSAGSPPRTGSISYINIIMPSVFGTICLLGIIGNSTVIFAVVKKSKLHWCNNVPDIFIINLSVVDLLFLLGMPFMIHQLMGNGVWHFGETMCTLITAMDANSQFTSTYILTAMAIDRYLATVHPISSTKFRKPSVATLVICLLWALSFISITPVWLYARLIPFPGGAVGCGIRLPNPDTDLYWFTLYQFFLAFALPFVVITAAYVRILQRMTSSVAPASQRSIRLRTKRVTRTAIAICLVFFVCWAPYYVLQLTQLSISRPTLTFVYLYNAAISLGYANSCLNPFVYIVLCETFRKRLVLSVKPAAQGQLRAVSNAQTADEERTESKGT
Experimental for human MCH-R2: The aequorin bioluminescence assay can be used to measure the activity of G protein-coupled receptors that couple through the Gα protein subunit family consisting of Gq and G11. Such coupling leads to phospholipase C activation, intracellular calcium mobilization and protein kinase C activation.
Following approximately 40 hours of expression the apo-aequorin in the cells was charged for 4 hours with coelenterazine (10 μM) under reducing conditions (300 μM reduced glutathione) in ECB buffer (140 mM NaCl, 20 mM KCl, 20 mM HEPES-NaOH [pH=7.4], 5 mM glucose, 1 mM MgCl2, 1 mM CaCl2, 0.1 mg/ml bovine serum albumin).
The cells were harvested, washed once in ECB medium and resuspended to 500,000 cells/ml. 100 μl of cell suspension (corresponding to 5×10^4 cells) was then injected into the test plate containing MCH or MCH analogs, and the integrated light emission was recorded over 30 seconds, in 0.5 second units. 20 μL of lysis buffer (0.1% final Triton X-100 concentration) was then injected and the integrated light emission recorded over 10 seconds, in 0.5 second units. The “fractional response” values for each well were calculated by taking the ratio of the integrated response to the initial challenge to the total integrated luminescence including the Triton X-100 lysis response.

Turning to `CSCC[C@@H]1NC(=O)[C@@H](NC(=O)[C@H](CCCNC(=N)N)NC(C)=O)CSSC[C@@H](C(N)=O)NC(=O)[C@@H]2CCCN2C(=O)[C@H](CCCNC(=N)N)NC(=O)[C@H](Cc2ccc(O)cc2)NC(=O)[C@H](C(C)C)NC(=O)[C@H](CCCNC(=N)N)NC(=O)CNC(=O)[C@H](CC(C)C)NC1=O` [compound 2], on human MCH-1R (Table 2), the “MCH-1R Activation %” value worked out at 99%.

Regarding `CSCC[C@@H]1NC(=O)[C@@H](NC(C)=O)CSSC[C@@H](C(N)=O)NC(=O)[C@@H]2CCCN2C(=O)[C@H](CCCNC(=N)N)NC(=O)[C@H](Cc2ccc(O)cc2)NC(=O)[C@H](C(C)C)NC(=O)[C@H](CCCNC(=N)N)NC(=O)CNC(=O)[C@H](CC(C)C)NC1=O` [compound 3], at human MCH-1R (Table 1), the “MCH-1R Activation %” value is 6.5%.

For the molecule `CSCC[C@@H]1NC(=O)[C@@H](NC(=O)[C@H](CCCNC(=N)N)NC(C)=O)CSSC[C@@H](C(N)=O)NC(=O)[C@@H]2CCCN2C(=O)[C@H](CCCNC(=N)N)NC(=O)[C@H](Cc2ccc(O)cc2)NC(=O)[C@H](C(C)C)NC(=O)[C@H](CCCNC(=N)N)NC(=O)[C@H](C)NC(=O)[C@H](CC(C)C)NC1=O` [compound 7], the “MCH-2R Activation %” value on human MCH-R2 is recorded as 97%. The “MCH-1R Activation %” value on human MCH-1R (Table 1) is reported as 104%.

As for `CSCC[C@@H]1NC(=O)[C@@H](NC(=O)[C@H](CCCNC(=N)N)NC(C)=O)CSSC[C@@H](C(N)=O)NC(=O)[C@@H]2CCCN2C(=O)[C@H](CCCNC(=N)N)NC(=O)[C@H](Cc2ccc(O)cc2)NC(=O)[C@H](C(C)C)NC(=O)[C@H](CCCNC(=N)N)NC(=O)[C@H](CC(C)C)NC(=O)[C@H](CC(C)C)NC1=O` [compound 8], the “MCH-2R Activation %” value at human MCH-R2 amounted to 80%. In addition, at human MCH-1R (Table 1), the “MCH-1R Activation %” value is reported as 106%.

With `CSCC[C@@H]1NC(=O)[C@@H](NC(=O)[C@H](CCCNC(=N)N)NC(C)=O)CSSC[C@@H](C(N)=O)NC(=O)[C@@H]2CCCN2C(=O)[C@H](CCCNC(=N)N)NC(=O)[C@H](Cc2ccc(O)cc2)NC(=O)[C@H](C(C)C)NC(=O)[C@H](CCCNC(=N)N)NC(=O)[C@H](CO)NC(=O)[C@H](CC(C)C)NC1=O` [compound 10], the “MCH-2R Activation %” value at human MCH-R2 amounted to 95%. Also, the “MCH-1R Activation %” value on human MCH-1R (Table 1) came to 104%.

As a reminder, the EC50 is the concentration that produces a half-maximal response. A higher EC50 goes with lower potency in that assay. On to `CSCC[C@@H]1NC(=O)[C@@H](NC(=O)[C@H](CCCNC(=N)N)NC(C)=O)CSSC[C@@H](C(N)=O)NC(=O)[C@@H]2CCCN2C(=O)[C@H](CCCNC(=N)N)NC(=O)[C@H](Cc2ccc(O)cc2)NC(=O)[C@H](C(C)C)NC(=O)[C@H](CCCNC(=N)N)NC(=O)C(C)(C)NC(=O)[C@H](CC(C)C)NC1=O` [compound 11], for which, on human MCH-R2, the EC50 stood at 24 nM, the “MCH-2R Activation %” value is 104% and the “selective activity at MCH-2R over MCH-1R” value is “selectively active”. In addition, the “MCH-1R Activation %” value on human MCH-1R (Table 1) was 22%.

As for `CSCC[C@@H]1NC(=O)[C@@H](NC(=O)[C@H](CCCNC(=N)N)NC(C)=O)CSSC[C@@H](C(N)=O)NC(=O)[C@@H]2CCCN2C(=O)[C@H](CCCNC(=N)N)NC(=O)[C@H](Cc2ccc(O)cc2)NC(=O)[C@H](C(C)C)NC(=O)[C@H](CCCNC(=N)N)NC(=O)[C@H](c2ccccc2)NC(=O)[C@H](CC(C)C)NC1=O` [compound 12], on human MCH-R2, the EC50 came to 140 nM, the “MCH-2R Activation %” value is listed as 80% and the “selective activity at MCH-2R over MCH-1R” value is listed as “selectively active”. At human MCH-1R, the EC50 was above 10000 nM. The “MCH-1R Activation %” value on human MCH-1R (Table 1) was found to be 0.1%.

Consider `CSCC[C@@H]1NC(=O)[C@@H](NC(=O)CCCCNC(=N)N)CSSC[C@@H](C(N)=O)NC(=O)[C@@H]2CCCN2C(=O)[C@H](CCCNC(=N)N)NC(=O)[C@H](Cc2ccc(O)cc2)NC(=O)[C@H](C(C)C)NC(=O)[C@H](CCCNC(=N)N)NC(=O)[C@@H](C)NC(=O)[C@H](CC(C)C)NC1=O` [compound 34] ({Pentanoyl(5-guanidino)}-CML[dA]RVYRPC-NH2; disulfide 1-10), for which, on human MCH-R2, the “selective activity at MCH-2R over MCH-1R” value is listed as “selectively active”.
